Data as given in patent US20070259856A1, “Method for Activating Trpv4 Channel Receptors by Agonists” (priority 2004, published 2007).
pEC50, pIC50: −log10 of the molar value. Marks after values point to notes of the source that are not given here.

How the values were obtained:
aggrecanase = assay: IL-1 induced aggrecanase production, chondrocyte-based aggrecanase peptide cleavage assay; format: cell-based, bovine; settings: Bos taurus
Source text: Aggrecanases (ADAMTSs), in conjunction with MMPs, degrade aggrecan, one of the major matrix components in articular cartilage. […] 2003; 48(1): 119-133].

human cartilage explants = assay: Aggrecan degradation (GAG, DMMB) in human cartilage explants; format: cell-based; settings: for GAG Mean ± SEM: cumulative, 21 days
Description: Because the progression of aggrecan degradation in response to IL-1 in human cartilage is slower than in bovine cartilage, culture media was removed and replaced with fresh treatments every 2-3 days for approximately 3 weeks. For each timepoint, GAG levels were measured by DMMB assay, and cumulative data released over the entire 3 week culture period was calculated.
The data represents cumulative aggrecan degradation after 21 days in culture. […] In addition, Formula IId caused a concentration-dependent reduction of IL-1-induced aggrecan degradation. […] The estimated IC50's shown in Table 7 are very similar to those IC50's calculated from IL-1-stimulated bovine cartilage.

[1] = tested on: bovine articular cartilage explants; assay: IL-1 induced aggrecan degradation (GAG release, DMMB) in bovine articular cartilage explants; format: cell-based; settings: Bos taurus; IL-1-stimulated bovine cartilage
Source text: Articular cartilage explants isolated from newborn calves at slaughter were placed in culture, and aggrecan degradation was initiated through stimulation with IL-1. Since aggrecan degradation in this model is believed to be mediated by aggrecanase, TRPV4 channel receptor agonists that are active in the chondrocyte-based aggrecanase peptide assay (Example 11) may also be effective inhibitors in the cartilage explant assay, presumably by blocking aggrecanase production in these tissues.
At the end of the culture period, conditioned media were assayed for glycosaminoglycan (GAG) levels by colorimetric (DMMB) assay as a measure of aggrecan degradation. In bovine explants, IL-1 induced a profound increase in the amount of GAG released into the media during the 3 day culture. When cartilage was treated with IL-1 in combination with Formula IIc, there was a concentration-dependent reduction in GAG release as shown in Table 5.

TRPV4 channel receptor [2] = target: T1, TRPV4 channel receptor (Bos taurus, UniProt A0A8F4X677); assay: Ca2+ influx in bovine articular chondrocytes (FlexStation); format: cell-based; settings: bovine chondrocytes
T1 construct: endogenous in cells; host or cells: bovine articular chondrocytes

TRPV4 channel receptor [3] = target: T2, TRPV4 channel receptor (Homo sapiens, UniProt Q9HBA0); assay: Whole cell patch clamp, HEK293 MSRII cells transduced with human TRPV4 BacMam virus; format: cell-based; design: V5-His (from the vector's name only); expressed in transfected cells; host or cells: HEK293
Source text: Functional, cell-based assays presently utilized to evaluate the activity of TRPV4 channel receptor agonists (e.g., FLIPR) provide an indirect, downstream measure of channel activation or blockage. In order to more directly evaluate a compound's effect on TRPV4 channel receptor, procedures to electrophysiologically record current flow through TRPV4 channels have been established. These procedures utilize HEK293 MSRII cells transiently transduced with 5% human TRPV4 BacMam virus, a standard extracellular physiological saline solution, and a well established, potassium channel-blocking electrode (internal) solution (Vriens et al., PNAS, 2004). Standard whole cell patch clamp techniques were used to maintain cells at a holding potential of 0 mV between inductions of 200 msec, −100 mV to +100 mV ramp protocols every 5 seconds. The inset of FIG. 1 represents the inward and outward current amplitude at −100 mV and +100 mV, respectively, during each ramp protocol prior to (baseline) and throughout the administration of 100 nM Formula IId. The main body of FIG. 1 illustrates the recorded current flow in response to a −100 mV to +100 mV ramp at the five specific times labelled in the inset.

[4] = tested on: bovine articular cartilage explants; assay: IL-1 induced collagen degradation (hydroxyproline) in bovine articular cartilage explants; format: cell-based
Description: IL-1 stimulates collagen degradation in bovine articular cartilage explants after extended (−2-3 weeks) exposure to IL-1. Collagen breakdown was evaluated by measuring the levels of hydroxyproline, a major component of hydrolyzed collagen fibrils, using a colorimetric assay that is understood in the art. Bovine articular cartilage was stimulated with IL-1 for 18 days, in the absence or presence of Formula Ib or Formula IId (both at 1 uM). Media was removed and replaced every 2-4 days with fresh IL-1 and compound through day 18. As has been shown previously, aggrecan degradation precedes collagen breakdown in IL-1-stimulated bovine cartilage explants. Once aggrecan depletion had been achieved by day 10, media were analyzed for collagen breakdown using the hydroxyproline assay.

[5] = tested on: HEK293 MSRII cells without human TRPV4 vector; assay: Whole cell patch clamp, HEK293 MSRII cells exposed to BacMam virus alone; format: cell-based; settings: 3 μM
TRPV4 channel receptor [6] = target: T2, TRPV4 channel receptor; assay: Ca2+ influx in human articular chondrocytes (FlexStation)

T2 sequence (Q9HBA0 whole entry): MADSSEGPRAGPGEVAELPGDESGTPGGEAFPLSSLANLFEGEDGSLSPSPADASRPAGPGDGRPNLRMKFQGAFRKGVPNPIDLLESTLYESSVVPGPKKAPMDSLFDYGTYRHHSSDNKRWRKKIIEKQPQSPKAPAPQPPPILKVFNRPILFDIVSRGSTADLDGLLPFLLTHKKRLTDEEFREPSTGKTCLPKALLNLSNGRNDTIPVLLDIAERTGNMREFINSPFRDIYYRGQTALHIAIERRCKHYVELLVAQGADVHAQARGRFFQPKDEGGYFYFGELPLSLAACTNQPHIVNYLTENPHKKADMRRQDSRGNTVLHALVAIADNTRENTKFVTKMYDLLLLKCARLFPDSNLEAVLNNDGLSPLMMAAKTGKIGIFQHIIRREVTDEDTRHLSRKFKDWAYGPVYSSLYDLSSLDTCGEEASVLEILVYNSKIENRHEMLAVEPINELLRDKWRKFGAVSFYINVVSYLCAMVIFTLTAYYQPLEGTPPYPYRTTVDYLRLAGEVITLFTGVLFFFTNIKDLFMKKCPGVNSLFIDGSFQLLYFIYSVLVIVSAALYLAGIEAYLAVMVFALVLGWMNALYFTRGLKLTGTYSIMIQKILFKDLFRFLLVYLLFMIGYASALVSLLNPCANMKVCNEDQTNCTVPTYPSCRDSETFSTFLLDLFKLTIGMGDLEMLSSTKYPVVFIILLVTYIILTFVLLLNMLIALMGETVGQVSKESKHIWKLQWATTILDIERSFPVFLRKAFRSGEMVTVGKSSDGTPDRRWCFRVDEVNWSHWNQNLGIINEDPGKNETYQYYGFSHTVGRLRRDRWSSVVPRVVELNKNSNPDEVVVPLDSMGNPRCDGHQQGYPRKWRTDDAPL
T1 sequence (A0A8F4X677 1-871): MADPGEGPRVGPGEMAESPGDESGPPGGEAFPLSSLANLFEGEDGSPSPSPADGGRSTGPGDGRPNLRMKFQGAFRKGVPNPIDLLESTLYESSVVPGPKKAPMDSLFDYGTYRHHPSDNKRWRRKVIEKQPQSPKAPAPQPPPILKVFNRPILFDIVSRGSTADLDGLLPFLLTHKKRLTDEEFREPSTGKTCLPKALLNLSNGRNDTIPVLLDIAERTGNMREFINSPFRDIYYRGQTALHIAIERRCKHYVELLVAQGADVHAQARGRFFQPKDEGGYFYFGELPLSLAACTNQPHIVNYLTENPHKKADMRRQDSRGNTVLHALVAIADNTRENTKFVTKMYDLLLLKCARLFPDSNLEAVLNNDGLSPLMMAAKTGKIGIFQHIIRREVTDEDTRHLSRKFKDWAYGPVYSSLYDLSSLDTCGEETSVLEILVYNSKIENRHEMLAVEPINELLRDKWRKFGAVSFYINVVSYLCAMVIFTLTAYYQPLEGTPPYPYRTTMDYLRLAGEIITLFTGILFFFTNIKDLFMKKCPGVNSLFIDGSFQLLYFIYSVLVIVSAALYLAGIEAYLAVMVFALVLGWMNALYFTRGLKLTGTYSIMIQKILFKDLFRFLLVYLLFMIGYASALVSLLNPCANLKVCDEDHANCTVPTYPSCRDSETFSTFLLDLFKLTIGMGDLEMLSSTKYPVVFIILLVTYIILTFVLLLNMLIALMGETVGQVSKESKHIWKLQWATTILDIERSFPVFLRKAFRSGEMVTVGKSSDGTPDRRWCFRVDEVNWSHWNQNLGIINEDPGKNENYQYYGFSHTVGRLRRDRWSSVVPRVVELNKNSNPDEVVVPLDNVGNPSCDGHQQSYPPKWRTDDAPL

CC(C)C[C@H](NC(=O)c1cc2ccccc2s1)C(=O)N[C@@H]1CCCN(S(=O)(=O)c2ccccc2C#N)CC1=O [Formula IId, N-{(1s)-1-[({(4r)-1-[(2-Cyanophenyl)Sulfonyl]-3-Oxohexahydro-1H-Azepin-4-Yl}Amino)Carbonyl]-3-Methylbutyl}-1-Benzothiophene-2-Carboxamide]
pIC50 (aggrecanase): 7.40
inhibition at 0.01 µM (human cartilage explants; Homo sapiens, IL-1 (100 ng/ml), 0.01 uM, relative to IL-1 stim. GAG release): 35%
inhibition at 0.1 µM (human cartilage explants; Homo sapiens, IL-1 (100 ng/ml), 0.1 uM, relative to IL-1 stim. GAG release): 89%
inhibition at 1 µM (human cartilage explants; Homo sapiens, IL-1 (100 ng/ml), 1 uM, relative to IL-1 stim. GAG release): > 100%
inhibition at 0.01 µM (human cartilage explants; Homo sapiens, unstimulated, 0.01 uM, relative to control GAG release): 12%
inhibition at 0.1 µM (human cartilage explants; Homo sapiens, unstimulated, 0.1 uM, relative to control GAG release): 34%
inhibition at 1 µM (human cartilage explants; Homo sapiens, unstimulated, 1 uM, relative to control GAG release): 45%
pIC50 (human cartilage explants; Homo sapiens, estimated, 3-point concentration response): 7.52
GAG Mean ± SEM (human cartilage explants; IL-1 (100 ng/ml), 0.01 uM): 15.9 ± 1.6 µg/mg
GAG Mean ± SEM (human cartilage explants; IL-1 (100 ng/ml), 0.1 uM): 8.2 ± 0.5 µg/mg
GAG Mean ± SEM (human cartilage explants; IL-1 (100 ng/ml), 1 uM): 4.8 ± 0.5 µg/mg
% inhibition (human cartilage explants; IL-1 (100 ng/ml), 1 uM, relative to IL-1 stim. GAG release): 113** %
blocking of aggrecan degradation in unstimulated human cartilage explants (human cartilage explants; absence of IL-1): effective in blocking aggrecan degradation
GAG Mean ± SEM (human cartilage explants; unstimulated control, 0.01 uM): 5.9 ± 0.3 µg/mg
GAG Mean ± SEM (human cartilage explants; unstimulated control, 0.1 uM): 4.4 ± 0.2 µg/mg
GAG Mean ± SEM (human cartilage explants; unstimulated control, 1 uM): 3.7 ± 0.3 µg/mg
pIC50 [1]: 8.00
Ca Influx - FLEX (bovine) % effic. (TRPV4 channel receptor [2]): 79%
pEC50 (TRPV4 channel receptor [2]; read-out: Ca Influx - FLEX (bovine) EC50): 6.92
TRPV4 channel receptor-mediated current (TRPV4 channel receptor [3]; 100 nM, -100 mV to +100 mV ramp): activated a human TRPV4 channel receptor
lowest concentration observed to activate the human TRPV4 channel receptor (TRPV4 channel receptor [3]; whole cell patch clamp): 10 nM
block of IL-1-induced collagen degradation [4]: partially, but effectively, blocked
effect on membrane currents [5]: no measurable effect
pEC50 (TRPV4 channel receptor [6]; Ca Influx - FLEX (human) EC50, human chondrocytes): 6.96
Ca Influx - FLEX (human) % effic. (TRPV4 channel receptor [6]; human chondrocytes): 179%
